Measurements reported in US7855166B2, “Sulfonylamino(thio)carbonyl compounds” (Bayer Cropscience GmbH, priority 2005, dated 2010).

Tests used:
[1] = system: weed plants such as Sinapis alba, Echinochloa crus-galli, Lolium multiflorum, Chrysanthemum segetum, Setaria viridis, Abutilon theophrasti, Amaranthus …; test: Post-emergence effect on weeds (greenhouse pot test, visual scoring); assay type: in vivo; conditions: applied post-emergence (three-leaf stage) at a rate of 0.3 kg or less of active substance per hectare; scored after about 3 to 4 weeks in comparison to untreated controls
[2] = system: weed plants such as Sinapis alba, Chrysanthemum segetum, Avena sativa, Stellaria media, Echinochloa crus-galli, Lolium multiflorum, Setaria viridis, Abutilon …; test: Pre-emergence effect on weeds (greenhouse pot test, visual scoring); assay type: in vivo; conditions: applied pre-emergence at a rate of 0.3 kg or less of active substance per hectare; scored after 3 to 4 weeks in comparison to untreated controls

Structure (SMILES) | herbicidal action against weed plants (effect scored visually) [1] | herbicidal action against weed plants (visual scoring of plant damage or emergence damage) [2]
CCCOc1nn(C(=O)NS(=O)(=O)c2c(I)cccc2OC(F)F)c(=O)n1C [Compound 1.464] | very good herbicidal action | very good herbidical action
CC(C)Oc1nn(C(=O)NS(=O)(=O)c2c(I)cccc2OC(F)F)c(=O)n1C [Compound 1.465] | very good herbicidal action | very good herbidical action
COc1nn(C(=O)NS(=O)(=O)c2c(I)cccc2OC(F)F)c(=O)n1C1CC1 [Compound 1.467] | very good herbicidal action | very good herbidical action
CCOc1nn(C(=O)NS(=O)(=O)c2c(I)cccc2OC(F)F)c(=O)n1C1CC1 [Compound 1.470] | very good herbicidal action | very good herbidical action
CCCOc1nn(C(=O)NS(=O)(=O)c2c(I)cccc2OC(F)F)c(=O)n1C1CC1 [Compound 1.473] | very good herbicidal action | very good herbidical action
COc1nn(C(=O)NS(=O)(=O)c2c(I)cccc2OCC(F)(F)F)c(=O)n1C [Compound 1.481] | very good herbicidal action | very good herbidical action
COc1nn(C(=O)NS(=O)(=O)c2c(I)cccc2OCC(F)(F)F)c(=O)n1C1CC1 [Compound 1.488] | very good herbicidal action | very good herbidical action
COc1nn(C(=O)NS(=O)(=O)c2c(I)cccc2OCC(F)F)c(=O)n1C [Compound 1.501] | very good herbicidal action | very good herbidical action
CCOc1nn(C(=O)NS(=O)(=O)c2c(I)cccc2OCC(F)F)c(=O)n1C [Compound 1.504] | very good herbicidal action | very good herbidical action
CCCOc1nn(C(=O)NS(=O)(=O)c2c(I)cccc2OCC(F)F)c(=O)n1C [Compound 1.505] | very good herbicidal action | very good herbidical action
CC(C)Oc1nn(C(=O)NS(=O)(=O)c2c(I)cccc2OCC(F)F)c(=O)n1C [Compound 1.506] | very good herbicidal action | very good herbidical action
COc1nn(C(=O)NS(=O)(=O)c2c(I)cccc2OCC(F)F)c(=O)n1C1CC1 [Compound 1.508] | very good herbicidal action | very good herbidical action
CCOc1nn(C(=O)NS(=O)(=O)c2c(I)cccc2OCC(F)F)c(=O)n1C1CC1 [Compound 1.511] | very good herbicidal action | very good herbidical action
CCCOc1nn(C(=O)NS(=O)(=O)c2c(I)cccc2OCC(F)F)c(=O)n1C1CC1 [Compound 1.514] | very good herbicidal action | very good herbidical action
COc1nn(C(=O)NS(=O)(=O)c2c(I)cccc2OC(C)C(F)(F)F)c(=O)n1C (centres unmarked) [Compound 1.522] | very good herbicidal action | very good herbidical action
CCOc1nn(C(=O)NS(=O)(=O)c2c(I)cccc2OC(C)C(F)(F)F)c(=O)n1C (centres unmarked) [Compound 1.525] | very good herbicidal action | very good herbidical action
CCCOc1nn(C(=O)NS(=O)(=O)c2c(I)cccc2OC(C)C(F)(F)F)c(=O)n1C (centres unmarked) [Compound 1.526] | very good herbicidal action | very good herbidical action
CC(C)Oc1nn(C(=O)NS(=O)(=O)c2c(I)cccc2OC(C)C(F)(F)F)c(=O)n1C (centres unmarked) [Compound 1.527] | very good herbicidal action | very good herbidical action
COc1nn(C(=O)NS(=O)(=O)c2c(I)cccc2OC(C)C(F)(F)F)c(=O)n1C1CC1 (centres unmarked) [Compound 1.529] | very good herbicidal action | very good herbidical action
CCOc1nn(C(=O)NS(=O)(=O)c2c(I)cccc2OC(C)C(F)(F)F)c(=O)n1C1CC1 (centres unmarked) [Compound 1.532] | very good herbicidal action | very good herbidical action
CCCOc1nn(C(=O)NS(=O)(=O)c2c(I)cccc2OC(C)C(F)(F)F)c(=O)n1C1CC1 (centres unmarked) [Compound 1.535] | very good herbicidal action | very good herbidical action
COc1nn(C(=O)NS(=O)(=O)c2c(I)cccc2OCC(F)(F)C(F)(F)F)c(=O)n1C [Compound 1.544] | very good herbicidal action | very good herbidical action
CCCOc1nn(C(=O)NS(=O)(=O)c2c(I)cccc2OCC(F)(F)C(F)(F)F)c(=O)n1C [Compound 1.549] | very good herbicidal action | very good herbidical action
CC(C)Oc1nn(C(=O)NS(=O)(=O)c2c(I)cccc2OCC(F)(F)C(F)(F)F)c(=O)n1C [Compound 1.550] | very good herbicidal action | very good herbidical action
COc1nn(C(=O)NS(=O)(=O)c2c(I)cccc2OCC(F)(F)C(F)(F)F)c(=O)n1C1CC1 [Compound 1.552] | very good herbicidal action | very good herbidical action
CCOc1nn(C(=O)NS(=O)(=O)c2c(I)cccc2OCC(F)(F)C(F)(F)F)c(=O)n1C1CC1 [Compound 1.555] | very good herbicidal action | very good herbidical action
CCCOc1nn(C(=O)NS(=O)(=O)c2c(I)cccc2OCC(F)(F)C(F)(F)F)c(=O)n1C1CC1 [Compound 1.558] | very good herbicidal action | very good herbidical action
COc1nn(C(=O)NS(=O)(=O)c2c(I)cccc2SC)c(=O)n1C [Compound 1.579] | very good herbicidal action | very good herbidical action
